Consider three molecules from ChEMBL document CHEMBL5126631, “Chemo- and Site-Selective Lysine Modification of Peptides and Proteins under Native Conditions Using the Water-Soluble Zolinium” (J Med Chem, 2022).

The subject of one series is HepG2. The series can be described thus: Cytotoxicity against human HepG2 cells assessed as inhibition of cell viability at 25 uM measured after 48 hrs by CCK-8 assay. Type of series: functional. (Tetrazolium assays rely on reduction of a dye to a coloured formazan, in cell work by metabolically active cells.)
For series [1], the target named is T1, Replicase polyprotein 1ab (Severe acute respiratory syndrome coronavirus 2, UniProt P0DTD1). In words: Inhibition of SARS-CoV-2 3CLpro preincubated for 60 mins followed by addition of Dabcyl-KNSTLQSGLRKE-Edans fluorogenic peptide as substrate by FRET assay.
In series [2] the target is T1, Replicase polyprotein 1ab. The series can be described thus: Inhibition of SARS-CoV-2 3CLpro using Dabcyl-KNSTLQSGLRKE-Edans fluorogenic peptide as substrate by FRET assay.
Series [3] is described as follows: Drug localization in nucleus of human HepG2 cells by measuring quinolylated lysine residues at proteins at 20 uM measured after 24 hrs by nano LC/MS/MS analysis. Type of series: ADME, cell-based. The conditions noted are these: hepg2, 24 h.
Series [4] in a line: Drug localization in cell membrane of human HepG2 cells by measuring quinolylated lysine residues at proteins at 20 uM measured after 24 hrs by nano LC/MS/MS analysis. It counts as ADME, cell-based. Particulars: hepg2, 24 h.
Series [5] in a line: Drug localization in cytoskeleton of human HepG2 cells by measuring quinolylated lysine residues at proteins at 20 uM measured after 24 hrs by nano LC/MS/MS analysis. It counts as ADME, cell-based. Particulars: hepg2, 24 h.
Series [6] can be described thus: Drug localization in endosome of human HepG2 cells by measuring quinolylated lysine residues at proteins at 20 uM measured after 24 hrs by nano LC/MS/MS analysis. Type of series: ADME, cell-based. Particulars: hepg2, 24 h.
The nature of series [7]: Drug localization in cytoplasm of human HepG2 cells by measuring quinolylated lysine residues at proteins at 20 uM measured after 24 hrs by nano LC/MS/MS analysis. Type of series: ADME, cell-based. Particulars: hepg2, 24 h.
A short description of series [8]: Drug localization in mitochondria of human HepG2 cells by measuring quinolylated lysine residues at proteins at 20 uM measured after 24 hrs by nano LC/MS/MS analysis. It counts as ADME. The conditions noted are these: hepg2, 24 h.
Series [9] is described as follows: Drug localization in cytosol of human HepG2 cells by measuring quinolylated lysine residues at proteins at 20 uM measured after 24 hrs by nano LC/MS/MS analysis. It counts as ADME, subcellular.
Series [10] is described as follows: Drug localization in endoplasmic reticulum of human HepG2 cells by measuring quinolylated lysine residues at proteins at 20 uM measured after 24 hrs by nano LC/MS/MS analysis. The conditions noted are these: hepg2, 24 h. Type of series: ADME, cell-based.
The nature of series [11]: Drug localization in golgi apparatus of human HepG2 cells by measuring quinolylated lysine residues at proteins at 20 uM measured after 24 hrs by nano LC/MS/MS analysis. Type of series: ADME, cell-based. Particulars: hepg2, 24 h.

Each structure is given as a SMILES string. pIC50: −log10 of the molar value.

As for `COC1CSc2ccc3cc(C(=O)NCCCCCN4C(=O)c5cccc6c(N(C)C)ccc(c56)C4=O)ccc3[n+]21.Cl.[Cl-]` (stereo unspecified), the Activity with HepG2 is given as 90%.
By pIC50 is commonly meant the negative decadic logarithm of the IC50, by convention in mol/L. A low value points to a high IC50. On to `C#Cc1ccc2c(ccc3[n+]2C(OC)C[Se]3)c1` (stereo unspecified), for which the pIC50 in series [1] was 5.44; in series [2] it was 4.12. Besides, the Drug uptake in [3] was 22.61%; in series [4], 11.88%; in [5] it was 11.11%; in series [6], 2.3%; in series [7] it was 15.71%; in series [8], 2.3%. The Drug uptake in series [9] is given as 19.16%; in series [10], 1.53%; in series [11] it was 1.53%.
`C#Cc1ccc2c(ccc3[n+]2C(OC)CS3)c1` (stereo unspecified): the Drug uptake in series [3] is 27.19%; in [4], 8.77%; in [5], 7.02%; in series [6], 3.51%; in series [7] it was 14.04%; in [8] it was 2.63%. For the same molecule, the values for the Drug uptake in series [9], in series [10] and in [11] were 17.54%, 4.39% and 5.26%, respectively.
